Data taken from PubChem BioAssay AID489040 (Sanford-Burnham Center for Chemical Genomics, 2010).
pEC50: −log10 of the molar value. The source made the active and inactive calls.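 The calls were made as follows: active = mean half-maximal activating concentration from the dose-response fit at or below a set limit; inactive = the rest.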

Biological target: CHO-XBP1 luciferase reporter, IRE1-XBP1 UPR activation
Assay: activators of IRE1-XBP1 UPR arm, dose response, counter-screen for apoptotic UPR arm activators, CHO-XBP1 cells, luminescence (AID 489040);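 also: reporter read after six hours of compound exposure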

| Compound | EC50 | pEC50 |
| --- | --- | --- |
| O=C(CCl)Nc1ccc(-c2ccccc2)cc1 | > 80 µM (inactive) |  |
| CCOC(=O)C(=Cc1ccc(OCc2ccc([N+](=O)[O-])cc2)c(OC)c1)C(=O)OCC | > 80 µM (inactive) |  |
| CC(C)C(=O)N1CCN(c2ccc(NC(=O)c3ccc([N+](=O)[O-])o3)cc2)CC1 | > 80 µM (inactive) |  |
| Oc1ccc(-c2csc(Nc3ccccn3)n2)cc1O | > 80 µM (inactive) |  |
| COc1nc(N)nc(NC(=O)c2cccs2)c1N=O | > 80 µM (inactive) |  |
| O=C(Nc1ccc2oc(-c3ccc4ccccc4c3)nc2c1)c1ccc2c(c1)OCCO2 | inactive |  |
| O=C(CSC(=S)N1CCCC1)c1cc(Br)cc(Br)c1O | > 80 µM (inactive) |  |
| Cc1ccc(S/C=C\C(=O)c2ccccc2)cc1 | > 80 µM (inactive) |  |
| O=C(/C=C/Sc1ccccc1)c1ccc(Cl)cc1 | > 80 µM (inactive) |  |
| CC1CCCCC1N1CN=C(Nc2nc3ccccc3s2)NC1 (stereo unspecified) | > 80 µM (inactive) |  |
| C/C(=N\NC(=O)c1cc2ccccc2cc1O)c1ccccn1 | > 80 µM (inactive) |  |
| CSC(=S)N/N=C(\C)c1ccccc1 | > 80 µM (inactive) |  |
| S=c1[nH]nc(-c2cc(-c3ccccc3)n[nH]2)n1/N=C/C(Br)=C/c1ccccc1 | > 80 µM (inactive) |  |
| CC1CCC/C=C/C2CC(O)CC2C(O)/C=C/C(=O)O1 (stereo unspecified) | > 80 µM (inactive) |  |
| CC(=O)/C(=C/c1ccccc1)C(=O)Nc1ccccc1C | > 80 µM (inactive) |  |
| COCCN=c1scc(-c2cccs2)n1/N=C/c1ccc(O)c(O)c1O | > 80 µM (inactive) |  |
| O=C1C=CC(=O)N1c1ccc(N2CCCCC2)cc1 | > 80 µM (inactive) |  |
| COc1ccc(/C=N/Nc2cc(C)nc(-n3nc(C)cc3C)n2)c(OC)c1 | > 80 µM (inactive) |  |
| COc1ccc(-c2ccc(-c3nc4c(c(=O)[nH]c(=O)n4Cc4ccccc4)n3C)o2)c([N+](=O)[O-])c1 | > 80 µM (inactive) |  |
| CCOC(=O)c1sc(NC(=S)NC(=O)c2ccccc2)c(C(=O)OCC)c1C | > 80 µM (inactive) |  |
| CCOc1cc(C=C(C(=O)OC)C(=O)OC)ccc1OCc1ccc([N+](=O)[O-])cc1 | > 80 µM (inactive) |  |
| OCCNc1nc(Nc2ccc(Br)cc2)nc2ccccc12 |  | 5.29 |
| O=C(Nc1ccc(NC(=O)c2sc3ccccc3c2Cl)cc1Cl)c1ccco1 | inactive |  |
| CC(=O)c1cccc(NC(=O)CSc2ncc(C(=O)Nc3ccccc3)c(=O)n2C)c1 | > 80 µM (inactive) |  |

| Compound | EC50 | pEC50 |
| --- | --- | --- |
| COc1ccccc1N1CCN(Cc2ccc(O)c3ncccc23)CC1 | > 80 µM (inactive) |  |
| Cn1c(/C=C/c2ccc([N+](=O)[O-])o2)nc2ccccc2c1=O | > 80 µM (inactive) |  |
| CCOC(=O)/C(=C\c1ccccc1)C(=O)c1cc(C(C)=O)c(Nc2ccccc2)s1 | > 80 µM (inactive) |  |
| CCc1nc(N=Nc2c(O)[nH]c3ccccc23)c2c3c(sc2n1)CCC3 | inactive |  |
| O=C(/C=C1\NC2(CCCC2)Cc2ccccc21)C(=O)N/N=C/c1ccc(O)c(O)c1 |  | 4.87 |
| Oc1ccc(/C=N/Nc2cc(N3CCCC3)nc(N3CCCC3)n2)cc1O | inactive |  |
| COc1ccc2c(c1OC)C(=O)OC2Nc1nc(-c2ccccc2)cs1 (stereo unspecified) | > 80 µM (inactive) |  |
| CCc1ccc2nc(N(CCCN(C)C)C(=O)c3ccc(S(=O)(=O)N(C)C4CCCCC4)cc3)sc2c1 | > 80 µM (inactive) |  |
| c1ccc(-c2nc(N3CCCCCC3)c3ccccc3n2)nc1 | > 80 µM (inactive) |  |
| CCN(CC)c1ccc(/C=C2\C(=O)N(c3nnc(C)c(=O)[nH]3)N=C2C)cc1 | > 80 µM (inactive) |  |
| Oc1cc(-c2cccnc2)cc2cccnc12 | inactive |  |
| Oc1c(CN2CCN(c3ccc(F)cc3)CC2)cc(Cl)c2cccnc12 | > 80 µM (inactive) |  |
| O=c1cc(C(Cl)(Cl)Cl)oc2c1ccc1ccccc12 | inactive |  |
| COc1ccc(OC)c(Nc2nc(-c3ccc(O)c(O)c3)cs2)c1 | > 80 µM (inactive) |  |
| COc1ccc(C(=O)Cn2c(C(=O)/C=C/c3ccccc3)nc3ccccc32)cc1 | > 80 µM (inactive) |  |
| CN=c1scc(-c2ccco2)n1/N=C/c1ccc(O)c(O)c1 | > 80 µM (inactive) |  |
| CCc1ccc2nc(N(CCCN(C)C)C(=O)c3ccc(S(=O)(=O)N4CCc5ccccc5C4)cc3)sc2c1 | > 80 µM (inactive) |  |
| COc1ccc(/C=C/C(=O)Oc2ccc(C)cc2)cc1 | > 80 µM (inactive) |  |
| O=C(NC(=S)Nc1ccc(NC(=O)c2cccs2)cc1)c1cc2ccccc2o1 | > 80 µM (inactive) |  |
| Cn1nnnc1Sc1ncnc2scc(-c3ccc([N+](=O)[O-])cc3)c12 | > 80 µM (inactive) |  |
| Cc1ccc(-c2nnc(-c3ccc(NC(=O)c4cccs4)cc3)o2)cc1 |  | 4.92 |
| COc1ccc(-c2csc3nc(-c4ccc(C)cc4)oc(=O)c23)cc1OC | > 80 µM (inactive) |  |
| CC1(C)CC(=O)C(=Cc2cn(-c3ccccc3)nc2-c2ccc(Cl)cc2)C(=O)C1 | > 80 µM (inactive) |  |
| N=c1c(-c2nc3ccccc3[nH]2)cc(C(=O)c2ccco2)nn1-c1ccccc1 | > 80 µM (inactive) |  |

| Compound | EC50 | pEC50 |
| --- | --- | --- |
| COc1ccccc1-c1nnc(Nc2nc3c(OC)cccc3s2)o1 | > 80 µM (inactive) |  |
| COc1cccc(/C=N/Nc2nc(Nc3ccccc3)nc(-n3nc(C)cc3C)n2)c1O |  | 5.29 |
| COc1ccc(C(=O)Sc2ccc(Cl)cc2)cc1OC | > 80 µM (inactive) |  |
| COC(=O)c1cc(=O)n(CCc2ccc(OC)cc2)c(=Nc2ccc(F)c(Cl)c2)s1 | > 80 µM (inactive) |  |
| CCOc1ccc(N2C(=O)CC(N(O)c3ccccc3)C2=O)cc1 (stereo unspecified) | > 80 µM (inactive) |  |
| O=C1NC(=S)NC(=O)C1=Cc1ccc(Br)s1 | > 80 µM (inactive) |  |
| Cc1cc(C(=O)c2ccc(Cl)cc2)c(NC(=O)CCl)s1 | > 80 µM (inactive) |  |
| O=C1Nc2ccccc2/C1=C\C(=O)c1ccccc1 | > 80 µM (inactive) |  |
| CCSC1(SCC)N=C(N)C2(C#N)C(c3ccc(F)cc3)C12C#N (stereo unspecified) | > 80 µM (inactive) |  |
| Cc1ccc(CS(=O)(=O)c2ncc(Cl)c(C(=O)Nc3ccc(OC(F)F)cc3)n2)cc1 | > 80 µM (inactive) |  |
| CCCCNC1C(CC)C(CCC)C(C#N)(C#N)C1(C#N)C#N (stereo unspecified) | > 80 µM (inactive) |  |
| COc1ccc(Cn2c(SCc3ccc(C)cc3)nc3cc(OC)c(OC)cc3c2=N)cc1Cl | > 80 µM (inactive) |  |
| Cc1cccc2sc(NC(=O)c3cc(S(=O)(=O)N(C)C)ccc3N3CCCC3)nc12 |  | 5.28 |
| C[C@@H]1C[C@@H]2O[C@H]2/C=C\C=C\C(=O)Cc2c(Cl)c(O)cc(O)c2C(=O)O1 | > 80 µM (inactive) |  |
| Cc1ccc(C)c2sc(N3CCN(C(=O)c4ccc([N+](=O)[O-])o4)CC3)nc12 | > 80 µM (inactive) |  |
| Cc1c(C(=O)c2no[n+]([O-])c2C(=O)c2cnn(C)c2C)cnn1C | > 80 µM (inactive) |  |
| COc1ccc(/C=C/c2nc3cc(-c4ccccc4)ccc3o2)cc1O | > 80 µM (inactive) |  |
| COc1cc(/C=C2\COC/C(=C\c3ccc(O)c(OC)c3)C2=O)ccc1O | > 80 µM (inactive) |  |
| CSc1nnc(NC(=O)c2nc(S(=O)(=O)Cc3ccccc3F)ncc2Cl)s1 | > 80 µM (inactive) |  |
| C/C(=N\NC(=O)c1cccc(Br)c1)c1ccccn1 | > 80 µM (inactive) |  |
| Cc1ccc(N2CCN(c3ccc(NCc4nc5ccccc5n4C)cc3)CC2)cc1 | inactive |  |
| N#Cc1ccc(N/N=C/c2cn(-c3ccccc3)nc2-c2ccccc2)c([N+](=O)[O-])c1 | > 80 µM (inactive) |  |
| CCN(CC)c1ccc(C=C2C(=O)NC(=S)NC2=O)cc1 | > 80 µM (inactive) |  |
